Assay results from US6645977B1 (priority 1997, dated 2003).
pIC50: −log10 of the molar value. Where “and” joins values, the source holds several entries; their conditions need not be identical. Equal values may be shown once. Where a name gives a salt, the structure may show the parent alone. Read-outs that look alike come from different tables or passages of the source.

How the values were obtained:
[1] = biological target: nAChRs comprised of α4 and β2 subunits (labelled by 3H-cytisine) (Rattus norvegicus, UniProt P09483+P12390); assay: In vitro inhibition of 3H-cytisine binding
Experimental: In vitro inhibition of ^3H-cytisine binding
The predominant subtype with high affinity for nicotine is comprised of α4 and β2 subunits. nAChRs of the latter type can selectively be labelled by the nicotine modulator ^3H-cytisine.
Tissue Preparation: Preparations are performed at 0-4° C. unless otherwise indicated. […] The homogenate is centrifuged at 27,000×g for 10 min. The supernatant is discarded and the pellet is resuspended in fresh buffer and centrifuged a second time. The final pellet is resuspended in fresh buffer (35 ml per g of original tissue) and used for binding assays.
Assay: Aliquots of 500 μl homogenate are added to 25 μl of test solution and 25 μl of ^3H-cytisine (1 nM, final concentration), mixed and incubated for 90 min at 2° C. Non-specific binding is determined using (−)-nicotine (100 μM, final concentration). After incubation the samples are added 5 ml of ice-cold buffer and poured directly onto Whatman GF/C glass fibre filters under suction and immediately washed with 2×5 ml ice-cold buffer. The amount of radioactivity on the filters is determined by conventional liquid scintillation counting. Specific binding is total binding minus non-specific binding.

[2] = biological target: nAChR labelled by 3H-α-bungarotoxin (α7 subunits) (Rattus norvegicus, UniProt Q05941); assay: biochemical; type: binding
[3] = relative to morphine; cited from earlier work
[4] = 3H-cytisine IC50, rat cerebral cortex homogenate, 1 nM 3H-cytisine, 90 min at 2° C.
[5] = read-out: 3H-α-bungarotoxin IC50
[6] = rat cerebral cortex homogenate, 1 nM 3H-cytisine, 90 min at 2° C., read-out: 3H-cytisine IC50

Sequence of nAChR labelled by 3H-α-bungarotoxin (α7 subunits) (Q05941 23-502): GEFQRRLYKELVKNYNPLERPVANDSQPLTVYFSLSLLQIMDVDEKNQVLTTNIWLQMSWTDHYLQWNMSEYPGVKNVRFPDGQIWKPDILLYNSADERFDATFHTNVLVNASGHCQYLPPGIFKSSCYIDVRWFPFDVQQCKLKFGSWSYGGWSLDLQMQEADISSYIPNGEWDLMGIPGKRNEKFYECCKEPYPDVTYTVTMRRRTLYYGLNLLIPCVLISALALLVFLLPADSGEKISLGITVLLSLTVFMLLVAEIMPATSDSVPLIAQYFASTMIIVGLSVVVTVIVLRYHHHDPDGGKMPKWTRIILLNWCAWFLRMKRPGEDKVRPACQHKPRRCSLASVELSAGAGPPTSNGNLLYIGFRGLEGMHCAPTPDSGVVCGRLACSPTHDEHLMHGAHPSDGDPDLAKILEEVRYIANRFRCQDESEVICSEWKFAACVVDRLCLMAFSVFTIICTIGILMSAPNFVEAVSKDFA
Sequence of nAChRs comprised of α4 and β2 subunits (labelled by 3H-cytisine) (P09483 31-630): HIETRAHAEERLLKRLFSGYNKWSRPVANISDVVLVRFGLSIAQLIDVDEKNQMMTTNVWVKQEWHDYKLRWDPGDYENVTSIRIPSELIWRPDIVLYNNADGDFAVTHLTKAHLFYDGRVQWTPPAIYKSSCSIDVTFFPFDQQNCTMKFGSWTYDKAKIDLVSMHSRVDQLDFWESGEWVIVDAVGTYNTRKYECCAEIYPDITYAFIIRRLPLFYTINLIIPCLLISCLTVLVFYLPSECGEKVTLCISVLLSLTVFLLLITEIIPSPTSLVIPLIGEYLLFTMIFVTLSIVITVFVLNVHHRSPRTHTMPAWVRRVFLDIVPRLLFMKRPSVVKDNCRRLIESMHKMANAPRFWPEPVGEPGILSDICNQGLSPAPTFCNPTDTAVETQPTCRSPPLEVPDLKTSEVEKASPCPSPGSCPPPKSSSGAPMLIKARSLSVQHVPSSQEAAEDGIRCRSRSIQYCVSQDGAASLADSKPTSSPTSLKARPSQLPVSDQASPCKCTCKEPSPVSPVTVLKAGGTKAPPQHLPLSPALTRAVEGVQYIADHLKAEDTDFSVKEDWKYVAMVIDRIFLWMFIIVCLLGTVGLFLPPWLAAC
Sequence of nAChRs comprised of α4 and β2 subunits (labelled by 3H-cytisine) (P12390 25-500): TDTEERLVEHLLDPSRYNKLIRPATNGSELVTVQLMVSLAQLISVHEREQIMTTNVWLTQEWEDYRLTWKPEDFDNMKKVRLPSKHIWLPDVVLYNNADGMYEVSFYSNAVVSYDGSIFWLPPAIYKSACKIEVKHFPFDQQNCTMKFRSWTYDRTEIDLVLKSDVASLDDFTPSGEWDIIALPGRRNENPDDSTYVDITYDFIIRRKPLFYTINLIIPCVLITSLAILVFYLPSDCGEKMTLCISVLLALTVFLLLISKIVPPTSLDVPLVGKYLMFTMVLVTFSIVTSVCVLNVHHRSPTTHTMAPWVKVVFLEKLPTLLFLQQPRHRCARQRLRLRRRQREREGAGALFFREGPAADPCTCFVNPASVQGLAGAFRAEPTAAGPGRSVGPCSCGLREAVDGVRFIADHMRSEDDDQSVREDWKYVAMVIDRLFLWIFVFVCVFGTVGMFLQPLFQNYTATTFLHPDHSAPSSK

| Structure (SMILES) | pIC50 [2, 5] | melting point | also measured |
| --- | --- | --- | --- |
| CN1C2C=C(c3cc4ccccc4s3)CC1CC2.Cl (racemic) [Compound 2d, (±)-3-(2-Benzothienyl)-8-methyl-8-azabicyclo[3.2.1]oct-2-ene Hydrochloride] | 7.17 | > 250 °C | pIC50 [1, 4]: 3.96 |
| CN1C2C=C(c3cc4ccccc4s3)CC1CC2 (racemic) [Compound 2c, (±)-3-(2-Benzothienyl)-8-methyl-8-azabicyclo[3.2.1]oct-2ene] | 7.00 | 81 to 83.6 °C | pIC50 [1, 4]: 4.20 |
| C1=C(c2cc3ccccc3o2)CC2CCC1N2 (racemic) (as salt: fumaric acid salt) [Compound 1e, (±)-3-(2-Benzofuryl)-8-H-8-azabicyclo[3.2.1]oct-2-ene Fumaric Acid Salt] |  | 201 to 204 °C |  |
| CN1C2C=C(c3cnc4ccccc4c3)CC1CC2.O=C(O)/C=C/C(=O)O (racemic) [Compound 3a, (±)-8-Methyl-3-(3-quinolinyl)-8-azabicyclo[3.2.1]oct-2-ene Fumaric Acid Salt] | 5.84 | 140.8 to 143.8 °C | pIC50 [1, 4]: 5.89 |
| CN1C2C=C(c3cc4ccccc4o3)CC1CC2 (racemic) [Compound 1d, (±)-3-(2-Benzofuryl)-8-methyl-8-azabicyclo[3.2.1]oct-2-ene Fumaric Acid Salt] | 6.77 |  | pIC50 [1, 4]: 3.92 |
| CN1C2C=C(c3ccc[se]3)CC1CC2 (racemic) |  | 176.8 to 178.3 °C |  |
| CN1C2C=C(c3ccsc3)CC1CC2.Cl (racemic) |  | 117 to 118.5 °C |  |
| CN1C2C=C(c3nc4ccccc4s3)CC1CC2.O=C(O)/C=C/C(=O)O (racemic) |  | 195 to 196.8 °C |  |
| CN1C2C=C(c3oc4ccccc4c3Br)CC1CC2 (racemic) [Compound 2f, (±)-3-[2-(3-Bromobenzofuryl)]-8-methyl-8-azabicyclo[3.2.1]oct-2-ene Fumaric Acid Salt] | 5.89 |  | pIC50 [1, 6]: 4.52 |
| CC(=O)Nc1cccc(C2=CC3CCC(C2)N3C)c1.O=C(O)/C=C/C(=O)O (racemic) [Compound 3c, (±)-3-(3-Acetamidophenyl)-8-methyl-8-azabicyclo[3.2.1]oct-2-ene Fumaric Acid Salt] |  | 195.3 to 196.9 °C | pIC50 [1, 6]: 4.77; pIC50 [2]: 6.19 |
| CN1C2C=C(c3ccc(Cl)nc3)CC1CC2 (racemic) (as salt: fumaric acid salt) [Compound 5b, (±)-8-Methyl-3-[3-(6-chloro)pyridyl]-8-azabicyclo[3.2.1]oct-2-ene Fumaric Acid Salt] |  | 140 to 142 °C |  |
| CN1C2C=C(c3cccc(N)c3)CC1CC2.O=C(O)/C=C/C(=O)O (racemic) [Compound 4c, (±)-3-(3-Aminophenyl) 8-methyl-8-azabicyclo[3.2.1]oct-2-ene Fumaric Acid Salt] | 6.36 | 195.3 to 196.9 °C | pIC50 [1]: 7.52 |
| CN1C2C=C(c3nccs3)CC1CC2.O=C(O)/C=C/C(=O)O (racemic) |  | 196.3 to 198.5 °C |  |
| CN1C2C=C(c3csc4ccccc34)CC1CC2.O=C(O)/C=C/C(=O)O (racemic) |  | 146.6 to 149.5 °C |  |
| CN1C2C=C(c3ccc(Cl)nc3)CC1CC2 (racemic) [Compound 5b, (±)-8-Methyl-3-[3-(6-chloro)pyridyl]-8-azabicyclo[3.2.1]oct-2-ene Fumaric Acid Salt] |  |  | pIC50 [1, 6]: 7.70; pIC50 [2]: 5.72 |
| CC(=O)C1=CC2CCC(C1)N2C.O=C(O)/C=C/C(=O)O (racemic) |  | 148.5 to 150 °C |  |
| CN1C2C=C(c3coc4ccccc34)CC1CC2.O=C(O)/C=C/C(=O)O (racemic) [Compound 4a, (±)-3-(3-Benzofuryl)-8-methyl-8-azabicyclo[3.2.1]oct-2-ene Fumaric Acid Salt] | 5.46 | 140.9 to 142.8 °C | pIC50 [1, 4]: 5.57 |
| C1=C(c2cccnc2)CC2CCC1N2Cc1ccccc1.O=C(O)/C=C/C(=O)O (racemic) [Compound 1a, (±)-8-Benzyl-3-(3-pyridyl)-8-azabicyclo[3.2.1]oct-2-ene Fumaric Acid Salt] | 6.30 | 142 to 146 °C | pIC50 [1, 4]: 7.64 |
| C1=C(c2cc3ccccc3o2)CC2CCC1N2 (racemic) [Compound 1e, (±)-3-(2-Benzofuryl)-8-H-8-azabicyclo[3.2.1]oct-2-ene Fumaric Acid Salt] |  |  | pIC50 [1, 6]: < 5.00; pIC50 [2]: 6.10 |
| CN1C2C=C(c3cccs3)CC1CC2.O=C(O)/C=C/C(=O)O (racemic) |  | 141.5 to 143.5 °C |  |
| CN1C2C=C(c3cc4ccccc4o3)CC1CC2.O=C(O)/C=C/C(=O)O (racemic) |  | 188.3 to 190.9 °C and 188.5 to 191.2 °C |  |
| CCN1C2C=C(c3cc4ccccc4o3)CC1CC2.O=C(O)/C=C/C(=O)O (racemic) [Compound 3e, (±)-3-(2-Benzofuryl)-8ethyl-8-azabicyclo[3.2.1]oct-2-ene Fumaric Acid Salt] | 6.29 | 197 to 203 °C | pIC50 [1, 4]: < 5.00 |
| CN1C2C=C(c3sccc3Br)CC1CC2 (racemic) [Compound 1f, (±)-3-[2-(3-bromothienyl)]-8-methyl-8-azabicyclo[3.2.1]oct-2-ene Fumaric Acid Salt] | 7.09 |  | pIC50 [1, 6]: 5.66 |
| Clc1ccc(C2CC3CCC2N3)cn1 (stereo not shown) [Epibatidine] |  |  | approximate analgesic potency [3]: ~500 times that of morphine |
| CN1C2C=C(c3sccc3-c3ccoc3)CC1CC2.O=C(O)/C=C/C(=O)O (racemic) |  | 187 to 189 °C |  |
| CN1C2C=C(c3cccnc3)CC1CC2 (racemic) [Compound 2a, (±)-8-Methyl-3-(3-pyridyl)-8-azabicyclo[3.2.1]oct-2-ene Fumaric Acid Salt] |  |  | pIC50 [1]: 7.66; pIC50 [2]: 6.26 |
| CN1C2C=C(c3oc4ccccc4c3Br)CC1CC2 (racemic) (as salt: fumaric acid salt) [Compound 2f, (±)-3-[2-(3-Bromobenzofuryl)]-8-methyl-8-azabicyclo[3.2.1]oct-2-ene Fumaric Acid Salt] |  | 161.4 to 163.3 °C |  |
